Data set [1] concerns HBV. Briefly: Anti-HBV activity in HepG2.117 inducible HBV producing cell line (intracellular HBV DNA, realtime PCR). Type of data set: cell-based, Hepatitis B virus. As to conditions: HepG2.117 cells (Tet-off), 3 days of treatment, intracellular HBV DNA by realtime PCR.
Data set [2] relates to HBV. Put plainly: Anti-HBV activity in HepG2.2.15 stable transfected cell line (HBV DNA from secreted virions, realtime PCR). Particulars: HepG2.2.15 cells, 6 days of treatment, HBV DNA from secreted virions by realtime PCR. In kind it is cell-based, Hepatitis B virus.
Data set [3] in a line: Cytotoxicity in HepG2 cells (Resazurin assay). In kind it is cell-based. As to conditions: human, incubated 4 days, viability by Resazurin assay.
Setting [4] is: Hepatitis B virus, HepG2.117, 72 h.
The mark [5] stands for this setting: Hepatitis B virus, HepG2.2.15, 144 h.

The results in this text go back to patent publication US10377709B2, “Carboxamide derivatives and the use thereof as medicaments for the treatment of hepatitis B” (Janssen Sciences Ireland UC, priority 2013, dated 2019).

A value given as a limit tells only on which side of the number the result lay.

What is called EC50 is the concentration needed to bring the measured effect to its halfway point. Higher therefore signals a need for much substance. Broadly, the CC50 is the concentration giving 50% cytotoxicity.

As for `CC(C)NC(=O)C(=O)N1CC[C@H](C(=O)Nc2ccc(F)c(C(F)(F)F)c2)C1` [Compound 23, (3S)-N-[4-fluoro-3-(trifluoromethyl)phenyl]-1-[2-(isopropylamino)-2-oxo-acetyl]pyrrolidine-3-carboxamide], the figures for the EC50 in the data set on HBV [1] (setting [4]) and with HBV [2] (setting [5]) were 575 nM and 380 nM, respectively. This compound came in with a CC50 at 4 days in data set [3] of more than 25000 nM.

For the compound `CC[C@@H](C)NC(=O)C(=O)N1CC[C@H](C(=O)Nc2ccc(F)c(C)c2)C1` [Compound 8, (3S)-N-(4-Fluoro-3-methylphenyl)-1-[{[(1R)-1-methylpropyl]amino}(oxo)acetyl]pyrrolidine-3-carboxamide], the EC50 in the data set on HBV [1] (setting [4]) is 38 nM; in the data set with HBV [2] (setting [5]) it was 65 nM. This compound also came in with a CC50 at 4 days in data set [3] of more than 25000 nM.

With `CC(C)(C)NC(=O)C(=O)N1CC[C@H](C(=O)Nc2ccc(F)c(Cl)c2F)C1` [Compound 19, (3S)-1-[2-(tert-butylamino)-2-oxo-acetyl]-N-(3-chloro-2,4-difluoro-phenyl)pyrrolidine-3-carboxamide], the EC50 is 449 nM with HBV [1] (setting [4]) and 496 nM in the data set on HBV [2] (setting [5]). This compound also showed a half-maximal cytotoxic concentration (CC50) at 4 days in data set [3] of more than 25000 nM.

For `CC[C@@H](C)NC(=O)C(=O)N1CC[C@H](C(=O)Nc2ccc(F)c(C(F)(F)F)c2)C1` [Compound 24, (3S)-N-[4-fluoro-3-(trifluoromethyl)phenyl]-1-[2-[[(1R)-1-methylpropyl]-amino]-2-oxo-acetyl]pyrrolidine-3-carboxamide], the EC50 amounted to 384 nM in the data set on HBV [1] (setting [4]) and 134 nM in the data set on HBV [2] (setting [5]). Also, the half-maximal cytotoxic concentration (CC50) at 4 days in data set [3] was more than 25000 nM.

For `CC(C)NC(=O)C(=O)N1CC[C@H](C(=O)Nc2ccc(F)c(C(F)F)c2)C1` [Compound 31, (3S)-N-[3-(difluoromethyl)-4-fluoro-phenyl]-1-[2-(isopropylamino)-2-oxo-acetyl]pyrrolidine-3-carboxamide], the EC50 is 143 nM with HBV [1] (setting [4]) and 134 nM in the data set with HBV [2] (setting [5]). In data set [3], this compound gave a half-maximal cytotoxic concentration (CC50) at 4 days of more than 25000 nM.

As to `O=C(NC1(C(F)(F)F)CC1)C(=O)N1CC[C@H](C(=O)Nc2cc(F)c(F)c(Cl)c2)C1` [Compound 13, (S)-N-(3-chloro-4,5-difluorophenyl)-1-(2-oxo-2-((1-(trifluoromethyl)cyclopropyl)amino)acetyl)pyrrolidine-3-carboxamide], the EC50 worked out at 35 nM with HBV [1] (setting [4]) and 20 nM in the data set on HBV [2] (setting [5]). This compound showed a CC50 at 4 days in data set [3] of more than 25000 nM.

With `CC1(NC(=O)C(=O)N2CC[C@H](C(=O)Nc3cc(F)c(F)c(Br)c3)C2)COC1` [Compound 2, (S)-N-(3-bromo-4,5-difluorophenyl)-1-(2-((3-methyloxetan-3-yl)amino)-2-oxoacetyl)pyrrolidine-3-carboxamide], the values for the EC50 in the data set on HBV [1] (setting [4]) and in the data set on HBV [2] (setting [5]) were 33 nM and 70 nM, respectively. The CC50 at 4 days in data set [3] was more than 25000 nM.

`CC(C)NC(=O)C(=O)N1CCC(C(=O)Nc2cc(F)c(F)c(Cl)c2)[C@@H]1C` (stereo partly drawn) [Compound 29, (2S)-N-(3-chloro-4,5-difluoro-phenyl)-1-[2-(isopropylamino)-2-oxo-acetyl]-2-methyl-pyrrolidine-3-carboxamide]: the results for the EC50 in the data set on HBV [1] (setting [4]) and in the data set with HBV [2] (setting [5]) were 48 nM and 18 nM, respectively. In data set [3], this compound yielded a CC50 at 4 days of more than 25000 nM.

Take `CC(C)NC(=O)C(=O)N1CCC(C(=O)Nc2cc(F)c(F)c(Cl)c2)[C@@H]1C` (single isomer, unassigned) [Compound 29a]: the EC50 in the data set with HBV [1] is 11 nM; with HBV [2] it was 10 nM. This compound also registered a cytotoxic concentration (CC50) at 4 days in data set [3] of more than 25000 nM.

As for `Cc1cc(NC(=O)[C@H]2CCN(C(=O)C(=O)N[C@H]3CCOC3)C2)ccc1F` [Compound 9, (3S)-N-(4-Fluoro-3-methylphenyl)-1-{oxo[(3S)-tetrahydrofuran-3-ylamino]-acetyl}pyrrolidine-3-carboxamide], the concentration giving a half-maximal response (EC50) was found to be 134 nM in the data set with HBV [1] (setting [4]) and 120 nM with HBV [2] (setting [5]). The same compound came in with a CC50 at 4 days in data set [3] of more than 25000 nM.

With `Cc1cc(NC(=O)[C@H]2CCN(C(=O)C(=O)NC3(C)COC3)C2)ccc1F` [Compound 7, (3S)-N-(4-Fluoro-3-methylphenyl)-1-{[(3-methyloxetan-3-yl)amino]-(oxo)acetyl}pyrrolidine-3-carboxamide], the EC50 in the data set on HBV [1] (setting [4]) was 117 nM; in the data set on HBV [2] (setting [5]), 67 nM. Also, the CC50 at 4 days in data set [3] was more than 25000 nM.
